Measured values published in PubChem BioAssay (NCI).
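Cultured in 96-well plates, cells were exposed to test compound for 48 hours across five concentrations. Definition used: TGI = concentration required for complete inhibition of growth.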

Legend:
Assay in all cases: inhibition of tumour cell growth, NCI panel, 48 h
NCI-H23 lung = system: NCI-H23 lung
CCRF-CEM leukemia = system: CCRF-CEM leukemia
SK-MEL-28 melanoma = system: SK-MEL-28 melanoma
SK-MEL-5 melanoma = system: SK-MEL-5 melanoma
OVCAR-8 ovarian = system: OVCAR-8 ovarian
SW-620 colon = system: SW-620 colon
MCF7 breast = system: MCF7 breast
M14 melanoma = system: M14 melanoma
DU-145 prostate = system: DU-145 prostate
KM12 colon = system: KM12 colon
U251 CNS = system: U251 CNS
SF-268 CNS = system: SF-268 CNS
MALME-3M melanoma = system: MALME-3M melanoma
ACHN renal = system: ACHN renal
SNB-19 CNS = system: SNB-19 CNS
SF-539 CNS = system: SF-539 CNS
UACC-257 melanoma = system: UACC-257 melanoma
HCT-116 colon = system: HCT-116 colon
PC-3 prostate = system: PC-3 prostate
SR leukemia = system: SR leukemia
LOX IMVI melanoma = system: LOX IMVI melanoma
UACC-62 melanoma = system: UACC-62 melanoma
MDA-N = system: MDA-N
NCI/ADR-RES ovarian = system: NCI/ADR-RES ovarian
TK-10 renal = system: TK-10 renal
HCT-15 colon = system: HCT-15 colon
A498 renal = system: A498 renal
MDA-MB-435 = system: MDA-MB-435
SNB-75 CNS = system: SNB-75 CNS
COLO 205 colon = system: COLO 205 colon
786-0 renal = system: 786-0 renal
SN12C renal = system: SN12C renal
NCI-H460 lung = system: NCI-H460 lung
OVCAR-4 ovarian = system: OVCAR-4 ovarian
CAKI-1 renal = system: CAKI-1 renal
SK-MEL-2 melanoma = system: SK-MEL-2 melanoma
K-562 leukemia = system: K-562 leukemia
RPMI-8226 leukemia = system: RPMI-8226 leukemia
BT-549 breast = system: BT-549 breast
SK-OV-3 ovarian = system: SK-OV-3 ovarian
MDA-MB-231 breast = system: MDA-MB-231 breast
RXF 393 renal = system: RXF 393 renal
UO-31 renal = system: UO-31 renal
A549 NSCLC = system: A549 NSCLC
SF-295 CNS = system: SF-295 CNS
OVCAR-3 ovarian = system: OVCAR-3 ovarian
NCI-H226 lung = system: NCI-H226 lung
EKVX NSCLC = system: EKVX NSCLC
HCC-2998 colon = system: HCC-2998 colon
HT29 colon = system: HT29 colon
MOLT-4 leukemia = system: MOLT-4 leukemia
HOP-62 NSCLC = system: HOP-62 NSCLC
NCI-H522 lung = system: NCI-H522 lung
IGROV1 ovarian = system: IGROV1 ovarian
OVCAR-5 ovarian = system: OVCAR-5 ovarian
HOP-92 NSCLC = system: HOP-92 NSCLC
HL-60(TB) leukemia = system: HL-60(TB) leukemia
T-47D breast = system: T-47D breast

CC1(C)OCC(C2OC(OC(=O)c3ccc(C(F)(F)F)cc3)C3OC(C)(C)OC23)O1 (stereo unspecified)
TGI (NCI-H23 lung): > 77.5 µM | TGI (CCRF-CEM leukemia): > 77.5 µM | TGI (SK-MEL-28 melanoma): > 77.5 µM | TGI (SK-MEL-5 melanoma): > 77.5 µM | TGI (OVCAR-8 ovarian): > 77.5 µM | TGI (SW-620 colon): > 77.5 µM | TGI (MCF7 breast): > 77.5 µM | TGI (M14 melanoma): > 77.5 µM | TGI (DU-145 prostate): > 77.5 µM | TGI (KM12 colon): > 77.5 µM | TGI (U251 CNS): > 77.5 µM | TGI (SF-268 CNS): > 77.5 µM | TGI (MALME-3M melanoma): > 77.5 µM | TGI (ACHN renal): > 77.5 µM | TGI (SNB-19 CNS): > 77.5 µM | TGI (SF-539 CNS): > 77.5 µM | TGI (UACC-257 melanoma): > 77.5 µM | TGI (HCT-116 colon): > 77.5 µM | TGI (PC-3 prostate): > 77.5 µM | TGI (SR leukemia): > 77.5 µM | TGI (LOX IMVI melanoma): > 77.5 µM | TGI (UACC-62 melanoma): > 77.5 µM | TGI (MDA-N): > 77.5 µM | TGI (NCI/ADR-RES ovarian): > 77.5 µM | TGI (TK-10 renal): > 77.5 µM | TGI (HCT-15 colon): > 77.5 µM | TGI (A498 renal): > 77.5 µM | TGI (MDA-MB-435): > 77.5 µM | TGI (SNB-75 CNS): > 77.5 µM | TGI (COLO 205 colon): > 77.5 µM | TGI (786-0 renal): > 77.5 µM | TGI (SN12C renal): > 77.5 µM | TGI (NCI-H460 lung): > 77.5 µM | TGI (OVCAR-4 ovarian): > 77.5 µM | TGI (CAKI-1 renal): > 77.5 µM | TGI (SK-MEL-2 melanoma): > 77.5 µM | TGI (K-562 leukemia): > 77.5 µM | TGI (RPMI-8226 leukemia): > 77.5 µM | TGI (BT-549 breast): > 77.5 µM | TGI (SK-OV-3 ovarian): > 77.5 µM | TGI (MDA-MB-231 breast): > 77.5 µM | TGI (RXF 393 renal): > 77.5 µM | TGI (UO-31 renal): > 77.5 µM | TGI (A549 NSCLC): > 77.5 µM | TGI (SF-295 CNS): > 77.5 µM | TGI (OVCAR-3 ovarian): > 77.5 µM | TGI (NCI-H226 lung): > 77.5 µM | TGI (EKVX NSCLC): > 77.5 µM | TGI (HCC-2998 colon): > 77.5 µM | TGI (HT29 colon): > 77.5 µM | TGI (MOLT-4 leukemia): > 77.5 µM | TGI (HOP-62 NSCLC): > 77.5 µM | TGI (NCI-H522 lung): > 77.5 µM | TGI (IGROV1 ovarian): > 77.5 µM | TGI (OVCAR-5 ovarian): > 77.5 µM

c1ccc(P2c3ccccc3Nc3ccccc32)cc1
TGI (NCI-H23 lung): > 100 µM | TGI (CCRF-CEM leukemia): 72 µM | TGI (SK-MEL-28 melanoma): > 100 µM | TGI (SK-MEL-5 melanoma): 82.5 µM | TGI (OVCAR-8 ovarian): > 100 µM | TGI (SW-620 colon): > 100 µM | TGI (MCF7 breast): > 100 µM | TGI (HOP-92 NSCLC): 97.4 µM | TGI (M14 melanoma): > 100 µM | TGI (DU-145 prostate): > 100 µM | TGI (KM12 colon): > 100 µM | TGI (U251 CNS): > 100 µM | TGI (SF-268 CNS): > 100 µM | TGI (MALME-3M melanoma): > 100 µM | TGI (ACHN renal): > 100 µM | TGI (SNB-19 CNS): > 100 µM | TGI (SF-539 CNS): > 100 µM | TGI (UACC-257 melanoma): > 100 µM | TGI (HCT-116 colon): > 100 µM | TGI (PC-3 prostate): 87.1 µM | TGI (SR leukemia): 49.4 µM | TGI (LOX IMVI melanoma): > 100 µM | TGI (UACC-62 melanoma): > 100 µM | TGI (MDA-N): > 100 µM | TGI (NCI/ADR-RES ovarian): > 100 µM | TGI (TK-10 renal): > 100 µM | TGI (HCT-15 colon): > 100 µM | TGI (A498 renal): 76.6 µM | TGI (MDA-MB-435): > 100 µM | TGI (SNB-75 CNS): 71 µM | TGI (COLO 205 colon): > 100 µM | TGI (786-0 renal): > 100 µM | TGI (SN12C renal): > 100 µM | TGI (NCI-H460 lung): > 100 µM | TGI (OVCAR-4 ovarian): > 100 µM | TGI (CAKI-1 renal): > 100 µM | TGI (SK-MEL-2 melanoma): > 100 µM | TGI (K-562 leukemia): > 100 µM | TGI (HL-60(TB) leukemia): 55.8 µM | TGI (SK-OV-3 ovarian): > 100 µM | TGI (MDA-MB-231 breast): > 100 µM | TGI (RXF 393 renal): > 100 µM | TGI (UO-31 renal): > 100 µM | TGI (A549 NSCLC): > 100 µM | TGI (SF-295 CNS): > 100 µM | TGI (OVCAR-3 ovarian): 47.3 µM | TGI (NCI-H226 lung): > 100 µM | TGI (EKVX NSCLC): > 100 µM | TGI (HCC-2998 colon): > 100 µM | TGI (HT29 colon): > 100 µM | TGI (MOLT-4 leukemia): 58.7 µM | TGI (HOP-62 NSCLC): > 100 µM | TGI (NCI-H522 lung): > 100 µM | TGI (T-47D breast): > 100 µM | TGI (IGROV1 ovarian): > 100 µM | TGI (OVCAR-5 ovarian): > 100 µM
